Test results as given in patent publication US9000015B2, “Compounds for the treatment of addiction” (Gilead Sciences, Inc., priority 2011, dated 2015).

Assays:
Type in all cases: biochemical
HMAO-A = HMAO-A (Homo sapiens (Human), UniProt P21397); test: MAO-A assay (luminogenic MAO substrate); conditions: microsome MAO-A, 160 uM substrate
Method: (§1) MAO assays included luminogenic MAO substrate, reaction buffers, Luciferin Detection and the reconstitution buffer with eserase. Standard MAO reaction mixtures included microsome contained MAO-A (2 ug) or MAO-B (10 ug), 160 uM substrate for MAO-A or 16 uM substrate for MAO-B, MAO-A buffer (100 mM Hepes buffer, pH 7.5, 5% glycerol) or MAO-B buffer (100 mM Hepes, pH 7.5, 5% glycerol, 10% dimethyl sulfoxide) in a final volume of 30 ul. After 20 minutes of pre-incubation of the enzyme with compounds, the reaction was initiated by adding enzyme substrate and the reaction was allowed to proceed for 60 minutes. Reconstituted Luciferin Detection Reagent (30 ul) was then added is added to simultaneously stop the MAO reaction and convert the methyl ester derivative to luciferin and produce light. The amount of light produced is directly proportional to the activity of MAO. The mixtures were further incubated for 20 minutes and activity of the enzyme was determined using Perkin-Elmer Envision Reader.
(§2) Note: […] refers to the concentration of a compound that inhibits a reaction by 50%. In the case of competitive inhibition, IC50=2Ki when the substrate is present at the Km concentration, as per the relationship: Ki=IC50/[1+(substrate concentration/Km)].

recombinant human ALDH2 = recombinant human ALDH2 (Homo sapiens (Human), UniProt P05091); test: ALDH2 assay (NADH formation); conditions: 60 min pre-incubation, 150 uM formaldehyde, 2.5 mM NAD+; read-out: IC50 HALDH2
Sequence of recombinant human ALDH2 (P05091 18-517): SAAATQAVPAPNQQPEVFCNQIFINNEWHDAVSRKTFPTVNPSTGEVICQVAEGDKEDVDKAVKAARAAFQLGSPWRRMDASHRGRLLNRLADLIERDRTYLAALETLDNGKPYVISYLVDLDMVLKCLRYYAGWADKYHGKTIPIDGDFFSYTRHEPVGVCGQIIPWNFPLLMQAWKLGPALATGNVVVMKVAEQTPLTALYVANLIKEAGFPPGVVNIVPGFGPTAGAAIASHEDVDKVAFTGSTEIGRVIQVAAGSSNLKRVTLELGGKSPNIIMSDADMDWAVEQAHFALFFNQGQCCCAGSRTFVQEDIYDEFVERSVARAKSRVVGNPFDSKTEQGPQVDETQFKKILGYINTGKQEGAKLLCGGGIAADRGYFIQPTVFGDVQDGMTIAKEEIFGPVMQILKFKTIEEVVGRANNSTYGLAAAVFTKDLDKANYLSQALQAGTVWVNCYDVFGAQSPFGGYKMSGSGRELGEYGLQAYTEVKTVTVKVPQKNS
Method: Standard ALDH2 reaction mixtures contained 150 uM formaldehyde, 2.5 mM NAD^+, 10 mM MgCl2 and 10 nM recombinant human ALDH2 in 50 mM Hepes buffer, pH 7.4, 0.01% Tween 20 in a final volume of 50 ul using 384-well plates. After 60 min of pre-incubation of compound with ALDH2 and formaldehyde, the reaction was started by adding NAD+ and the reaction mixture was allowed to proceed for 90 minutes. Activity of the enzyme was determined by monitoring NADH formation using Perkin-Elmer Envision Reader with excitation and emission wavelengths set at 340 and 460 nm, respectively.
as §2

HMAO-B = HMAO-B (Homo sapiens (Human), UniProt P27338); test: MAO-B assay (luminogenic MAO substrate); conditions: microsome MAO-B, 16 uM substrate
Sequence of HMAO-B (P27338 whole entry): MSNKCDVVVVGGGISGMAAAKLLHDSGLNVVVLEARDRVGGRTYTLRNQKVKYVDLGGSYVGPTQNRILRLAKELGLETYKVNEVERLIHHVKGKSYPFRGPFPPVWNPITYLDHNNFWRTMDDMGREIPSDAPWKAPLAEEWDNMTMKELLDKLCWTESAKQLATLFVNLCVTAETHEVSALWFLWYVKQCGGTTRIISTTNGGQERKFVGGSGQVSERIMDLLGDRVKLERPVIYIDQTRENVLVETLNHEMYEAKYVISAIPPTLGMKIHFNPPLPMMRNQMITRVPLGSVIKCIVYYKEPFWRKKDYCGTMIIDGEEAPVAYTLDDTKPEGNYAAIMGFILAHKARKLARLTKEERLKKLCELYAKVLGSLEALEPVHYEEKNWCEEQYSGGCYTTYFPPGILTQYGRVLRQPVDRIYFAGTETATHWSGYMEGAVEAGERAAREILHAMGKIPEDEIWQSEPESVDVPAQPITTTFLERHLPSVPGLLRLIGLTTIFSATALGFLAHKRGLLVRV
Method: as §1, §2

Sequence of HMAO-A (P21397 whole entry): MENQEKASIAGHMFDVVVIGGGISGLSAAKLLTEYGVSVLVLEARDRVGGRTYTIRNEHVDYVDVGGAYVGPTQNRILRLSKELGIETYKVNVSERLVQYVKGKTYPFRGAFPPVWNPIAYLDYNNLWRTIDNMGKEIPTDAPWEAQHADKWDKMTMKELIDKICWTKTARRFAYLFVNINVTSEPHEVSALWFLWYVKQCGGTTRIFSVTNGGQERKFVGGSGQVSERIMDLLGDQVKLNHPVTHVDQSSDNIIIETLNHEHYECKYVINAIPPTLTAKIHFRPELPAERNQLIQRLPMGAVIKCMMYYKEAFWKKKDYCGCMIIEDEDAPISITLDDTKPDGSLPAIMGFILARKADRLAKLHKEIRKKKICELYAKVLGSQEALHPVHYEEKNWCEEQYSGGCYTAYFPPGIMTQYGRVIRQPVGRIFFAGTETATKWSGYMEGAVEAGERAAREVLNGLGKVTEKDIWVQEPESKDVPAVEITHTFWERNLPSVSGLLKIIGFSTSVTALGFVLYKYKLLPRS

SMILES | IC50 (HMAO-A) | IC50 (recombinant human ALDH2) | IC50 (HMAO-B)
COCCOc1cc(Cl)c(C(=O)NCc2ccc(-c3cc[nH]c(=O)c3)cc2)c(Cl)c1 [Compound 1, 2,6-dichloro-4-(2-methoxyethoxy)-N-(4-(2-oxo-1,2-dihydropyridin-4-yl)benzyl)benzamide] | > 130 µM | 0.063 µM | > 130 µM
O=C(NCc1ccc(-c2cc[nH]c(=O)c2)cc1)c1cccc(F)c1Cl [Compound 3, 2-chloro-3-fluoro-N-(4-(2-oxo-1,2-dihydropyridin-4-yl)benzyl)benzamide] | > 130 µM | 0.215 µM | > 130 µM
Cc1cccc(Cl)c1C(=O)NCc1ccc(-c2cc[nH]c(=O)c2)cc1 [Compound 4, 2-chloro-6-methyl-N-(4-(2-oxo-1,2-dihydropyridin-4-yl)benzyl)benzamide] | > 130 µM | 0.023 µM | > 130 µM
Cc1cccc(C)c1C(=O)NCc1ccc(-c2cc[nH]c(=O)c2)cc1 [Compound 5, 2,6-dimethyl-N-(4-(2-oxo-1,2-dihydropyridin-4-yl)benzyl)benzamide] | > 130 µM | 0.166 µM | > 130 µM
Cc1cc(-c2ccc(CNC(=O)c3c(Cl)cccc3Cl)cc2)cc(=O)[nH]1 [Compound 6, 2,6-dichloro-N-[4-(6-methyl-2-oxo-1,2-dihydro-pyridin-4-yl)-benzyl]-benzamide] | > 130 µM | 1.11 µM | > 130 µM
O=C(NCc1ccc(-c2cc[nH]c(=O)c2)cc1)c1c(F)ccc(F)c1Cl [Compound 7, 2-chloro-3,6-difluoro-N-(4-(2-oxo-1,2-dihydropyridin-4-yl)benzyl)benzamide] | > 130 µM | 0.464 µM | > 130 µM
Cc1cc(CNC(=O)c2c(Cl)cccc2Cl)ccc1-c1cc[nH]c(=O)c1 [Compound 8, 2,6-dichloro-N-(3-methyl-4-(2-oxo-1,2-dihydropyridin-4-yl)benzyl)benzamide] | > 130 µM | 0.48 µM | > 130 µM
Cn1ccc(-c2ccc(CNC(=O)c3c(Cl)cccc3Cl)cc2)cc1=O [Compound 9, 2,6-dichloro-N-(4-(1-methyl-2-oxo-1,2-dihydropyridin-4-yl)benzyl)benzamide] | > 130 µM | 2.09 µM | > 130 µM
O=C(NCc1ccc(-c2cc[nH]c(=O)c2)cc1)c1c(F)cccc1F [Compound 10, 2,6-difluoro-N-(4-(2-oxo-1,2-dihydropyridin-4-yl)benzyl)benzamide] | > 130 µM | 0.89 µM | > 130 µM
O=C(NCc1ccc(-c2cc[nH]c(=O)c2)cc1)c1c(F)cccc1Cl [Compound 11, 2-chloro-6-fluoro-N-(4-(2-oxo-1,2-dihydropyridin-4-yl)benzyl)benzamide] | > 130 µM | 0.379 µM | > 130 µM
O=C(NCc1ccc(-c2cc[nH]c(=O)c2)cc1F)c1c(Cl)cccc1Cl [Compound 12, 2,6-dichloro-N-(2-fluoro-4-(2-oxo-1,2-dihydropyridin-4-yl)benzyl)benzamide] | > 130 µM | 0.304 µM | > 130 µM
O=C(NCc1ccc(-c2cc(=O)[nH]cc2F)cc1)c1c(Cl)cccc1Cl [Compound 13, 2,6-dichloro-N-(4-(5-fluoro-2-oxo-1,2-dihydropyridin-4-yl)benzyl)benzamide] | > 130 µM | 0.025 µM | > 130 µM
